The source made the active and inactive calls.
Tests used:
[1] = Luminescence Cell-Based Dose Confirmation HTS to Identify Inhibitors of Platelet Dense Granule Release. [Related pubchem assays: 1663 (Primary HTS), 1678 (Summary of Project)]; format: functional
[2] = HepG2 cell cytotoxicity, dose response, cytotoxicity control, plate reader, cherry-pick, antagonist series (AID 743416); format: functional, cell-based
[3] = HEK293 cell cytotoxicity, dose response, cytotoxicity control, plate reader, cherry-picked samples (AID 743446); format: functional, cell-based
[4] = A549 cell cytotoxicity, dose response, cytotoxicity control, plate reader, cherry-pick, antagonist series (AID 743412); format: functional, cell-based
[5] = MC4R antagonists, dose response, counter-screen for LGR2 antagonist project, cell-based, plate reader, cherry pick (AID 743444); format: functional;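 further: transfected HEK 293 cells stimulated with alpha-MSH peptide; potency of inhibitors of the alpha-MSH evoked signal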
[6] = LGR2 antagonists, dose response, cell-based, HEK293, CRE-luciferase reporter, cherry pick, set 2 (AID 743343); format: functional;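 further: transfected cells were stimulated with diluted bursicon conditioned medium after compound addition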
Protein skinhead-1 = target: T1, Protein skinhead-1 (Caenorhabditis elegans, UniProt P34707); format: functional
T1 sequence (P34707 whole entry): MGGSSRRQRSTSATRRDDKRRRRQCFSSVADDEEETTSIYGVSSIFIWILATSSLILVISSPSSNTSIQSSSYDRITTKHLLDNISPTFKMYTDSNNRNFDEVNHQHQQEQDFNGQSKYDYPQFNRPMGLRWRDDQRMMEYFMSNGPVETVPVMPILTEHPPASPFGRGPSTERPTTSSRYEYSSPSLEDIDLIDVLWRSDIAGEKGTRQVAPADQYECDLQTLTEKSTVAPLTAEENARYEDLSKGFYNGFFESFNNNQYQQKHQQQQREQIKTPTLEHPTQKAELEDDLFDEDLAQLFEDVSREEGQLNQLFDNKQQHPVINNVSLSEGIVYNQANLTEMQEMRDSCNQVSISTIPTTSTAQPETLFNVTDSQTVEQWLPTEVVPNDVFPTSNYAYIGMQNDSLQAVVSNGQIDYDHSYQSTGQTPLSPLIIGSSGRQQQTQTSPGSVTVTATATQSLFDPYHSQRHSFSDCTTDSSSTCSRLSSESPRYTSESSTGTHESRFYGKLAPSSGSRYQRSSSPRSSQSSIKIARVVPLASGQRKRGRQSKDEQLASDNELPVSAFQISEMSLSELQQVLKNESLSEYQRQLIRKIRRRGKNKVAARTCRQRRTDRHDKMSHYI

[7] = target: Luciferin 4-monooxygenase (Photinus pyralis, UniProt P08659); assay: firefly luciferase enzyme inhibitors, dose response, biochemical, luminescence (AID 1891)
BJ [8] = assay: cytotoxicity toward BJ-TERT fibroblasts, dose response, cell-based, RAS-independent, luminescence (AID 1933); format: functional; conditions: Homo sapiens
BJ [9] = assay: cytotoxicity toward BJ-TERT-LT-ST fibroblasts, dose response, cell-based, RAS-independent, luminescence (AID 1935); format: functional; conditions: Homo sapiens;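 further: BJ fibroblasts immortalized with TERT plus LT and ST oncogenes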
[10] = cytotoxicity toward DRD oncogenic fibroblasts, dose response, cell-based, non-viral oncogenic, luminescence (AID 1934); format: functional; conditions: Homo sapiens
BJ [11] = assay: cells; format: functional, cell-based; conditions: Homo sapiens

Chain of Luciferin 4-monooxygenase (P08659 whole entry): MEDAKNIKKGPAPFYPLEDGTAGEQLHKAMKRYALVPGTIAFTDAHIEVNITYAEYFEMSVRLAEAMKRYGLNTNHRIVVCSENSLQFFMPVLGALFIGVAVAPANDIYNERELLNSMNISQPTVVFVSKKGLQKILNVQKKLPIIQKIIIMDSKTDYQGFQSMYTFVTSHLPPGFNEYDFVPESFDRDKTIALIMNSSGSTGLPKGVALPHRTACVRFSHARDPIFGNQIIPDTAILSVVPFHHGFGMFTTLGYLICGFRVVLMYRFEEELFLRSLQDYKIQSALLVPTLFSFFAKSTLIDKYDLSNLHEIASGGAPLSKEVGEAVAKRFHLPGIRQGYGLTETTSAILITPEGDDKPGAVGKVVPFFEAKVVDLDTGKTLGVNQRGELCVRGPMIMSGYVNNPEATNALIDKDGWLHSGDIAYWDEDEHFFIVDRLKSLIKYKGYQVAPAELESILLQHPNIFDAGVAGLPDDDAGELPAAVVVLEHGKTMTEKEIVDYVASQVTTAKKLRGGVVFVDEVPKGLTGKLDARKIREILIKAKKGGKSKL

Structure (SMILES): CCOc1ccc2nc(NC(=O)c3ccco3)sc2c1
- EC50 [1]: 3.13 µM (active)
- AC50 [2]: 32.6 µM (active)
- AC50 [3]: 20.6 µM (active)
- AC50 [4]: 35.4 µM (active)
- AC50 [5]: 7.74 µM (active)
- AC50 [6]: 8.15 µM (active)
- IC50 (Protein skinhead-1): > 100 µM (inactive)
- EC50 [7]: 0.383 µM (active)

Structure (SMILES): O=C(Nc1ccc(-c2nc3ccccc3[nH]2)cc1)C1CCCO1 (centres undefined)
- EC50 [1]: 1.69 µM (active)
- AC50 [2]: 24.7 µM (active)
- AC50 [3]: 21 µM (active)
- EC50 (BJ [8]): 8.39 µM (inconclusive)
- EC50 (BJ [9]): 22.9 µM (active)
- AC50 [4]: 14.1 µM (active)
- AC50 [5]: 6.98 µM (active)
- AC50 [6]: 6.14 µM (active)
- EC50 [10]: 9.19 µM (inconclusive)
- EC50 (BJ [11]): 16.8 µM (inconclusive)
- EC50 [7]: 1.02 µM (active)

— ChEMBL document CHEMBL1201862, “PubChem BioAssay data set” (2004)
